These results are taken from patent publication US7439250B2, “Compositions and methods related to fatty amino acid derivatives” (Board of Regents, The University of Texas System, priority 2002, dated 2008).

Structures are written as SMILES.

A short description of data set [1]: pH sensitivity of liposomes: turbidity (absorbance at 400 nm) as a function of pH titration. In kind it is physicochemical. The following applies: samples (50 μl) in 3 ml PBS titrated with HCl; pH lowered from 4.5 to 3.5; DSPC samples extruded to 100 nm. On the procedure:
FIG. 2 illustrates the absorbance change as a function of pH titration. Samples (50 μl) in 3 ml of PBS were titrated with HCl. The pH was measured and absorbence read at 400 nm.
The DSPC MLV samples were then processed by extrusion to form liposomes with diameters of 100 nm. The pH sensitivity of the liposomes were compared by monitoring turbidity at 400 nm as a function of pH. […] This feature of ALP may be useful in certain applications where pH plays a role.

Data set [2] is described as follows: Liposome preparation by lipid film rehydration, observed by light microscopy. The following applies: PBS pH 7.2, 55° C. In kind it is physicochemical. On the procedure:
Two ALPs of General Formula 1 were prepared, a) laurylaldehyde (X=O and R^1, R^2=C11H23) or b) (S,S)-(3-Octadecanoyl-6-oxo-2-undecyl-hexahydro-pyrimidine-4-carboxlic acid and tested for the ability to form liposomes and for its suitability as a component of liposomes containing phospholipids and cholesterol. Liposomes were prepared by mixing varying amounts of the phospholipid, distearoyl phosphatidylcholine (DSPC), cholesterol or ALP in chloroform. The chloroform was removed to form a thin lipid film. After vacuum desiccation overnight, each lipid formulation was rehydrated with phosphate buffered saline (PBS), pH 7.2, warmed to 55° C. (phase transition temperature of DSPC) and vortexed vigorously to form multilamellar liposomes (MLV). Aliquots of each MLV formulation were set aside and observed by light microscopy. DSPC MLV, DSPC MLV containing 10 mole % ALP, ALP lipid structures (3 mg/ml) and ALP lipid structures (30 mg/ml), respectively, were imaged.

Regarding `CCCCCCCCCCCCCCCCCC(=O)N1[C@@H](CCCCCCCCCCC)NC(=O)C[C@H]1C(=O)O` [ALP], in data set [1], the “absorbance change at 400 nm as a function of pH (pH sensitivity)” value is recorded as “increased”. The “structures formed on rehydration (light microscopy)” value is recorded as “crystal structures were evident” in data set [2] (ALP alone at high concentrations (30 mg/ml)) and “typically form liposomes” in data set [2] (ALP alone at low concentrations (3 mg/ml)).
